Data on eleven compounds can be found in patent publication US20250081967A1, “PESTICIDALLY ACTIVE HETEROCYCLIC DERIVATIVES WITH SULFOXIMINE CONTAINING SUBSTITUENTS” (SYNGENTA CROP PROTECTION AG, priority 2021, published 2025).

Some results are limits rather than exact numbers.

Holding throughout (assay type): in vivo
The subject of series [1] is Myzus persicae. Put plainly: Activity against Myzus persicae (green peach aphid), feeding/contact activity, sunflower leaf discs. To be noted: Myzus persicae, foliar; for mortality at 200 ppm: 144 h, application rate 200 ppm, feeding/contact, 6 days after infestation. The procedure: Example B4: Activity Against Myzus persicae (Green Peach Aphid) Feeding/Contact Activity
Sunflower leaf discs were placed on agar in a 24-well microtiter plate and sprayed with aqueous test solutions prepared from 10′000 ppm DMSO stock solutions. After drying, the leaf discs were infested with an aphid population of mixed ages. The samples were assessed for mortality 6 days after infestation.

In series [2] the test system is Euschistus heros. The experiment in a line: Activity against Euschistus heros (neotropical brown stink bug), soybean leaf. To be noted: 120 h, application rate 200 ppm, N-2 nymphs, 5 days after infestation, read-out: effect in at least one of the two categories (mortality or growth inhibition). The procedure:
Example B7: Activity Against Euschistus heros (Neotropical Brown Stink Bug)
Soybean leaf on agar in 24-well microtiter plates were sprayed with aqueous test solutions prepared from 10′000 ppm DMSO stock solutions. After drying the leaf were infested with N-2 nymphs. The samples were assessed for mortality and growth inhibition in comparison to untreated samples 5 days after infestation.

In series [3] the test system is Myzus persicae. Put plainly: Activity against Myzus persicae (green peach aphid), systemic activity, pea seedlings. To be noted: for mortality at 24 ppm: Myzus persicae. The procedure: Example B5: Activity Against Myzus persicae (Green Peach Aphid) Systemic Activity
Roots of pea seedlings infested with an aphid population of mixed ages were placed directly in the aqueous test solutions prepared from 10′000 DMSO stock solutions. The samples were assessed for mortality 6 days after placing seedlings in test solutions.

Series [4] has as its system Bemisia tabaci. Put plainly: Activity against Bemisia tabaci (cotton white fly), cotton leaf discs. To be noted: foliar; for mortality at 200 ppm: 144 h, application rate 200 ppm, adult white flies, 6 days after incubation. How it is done: Example B6: Activity Against Bemisia tabaci (Cotton White Fly)
Cotton leaf discs were placed on agar in 24-well microtiter plates and sprayed with aqueous test solutions prepared from 10′000 ppm DMSO stock solutions. After drying the leaf discs were infested with adult white flies. The samples were checked for mortality 6 days after incubation.

For series [5], the system named is Diabrotica balteata. The experiment in a line: Activity against Diabrotica balteata (corn root worm), maize sprouts. The settings on record: for percent effect (mortality or growth inhibition) at 200 ppm: 96 h, application rate 200 ppm, L2 larvae, 4 days after infestation, read-out: effect in at least one of the two categories (mortality or growth inhibition). How it is done:
Example B3: Activity Against Diabrotica Balteata (Corn Root Worm)
Maize sprouts placed onto an agar layer in 24-well microtiter plates were treated with aqueous test solutions prepared from 10′000 ppm DMSO stock solutions by spraying. After drying, the plates were infested with L2 larvae (6 to 10 per well). The samples were assessed for mortality and growth inhibition in comparison to untreated samples 4 days after infestation.

The test system of series [6] is Plutella xylostella. The experiment in a line: Activity against Plutella xylostella (diamond back moth), artificial diet, L2 larvae. The settings on record: 120 h, application rate 200 ppm, 5 days after infestation, read-out: effect in at least one of the two categories (mortality or growth inhibition). The procedure: Example B2: Activity Against Plutella xylostella (Diamond Back Moth)
24-well microtiter plates with artificial diet were treated with aqueous test solutions prepared from 10′000 ppm DMSO stock solutions by pipetting. After drying, the plates were infested with L2 larvae (10 to 15 per well). The samples were assessed for mortality and growth inhibition in comparison to untreated samples 5 days after infestation.

Series [7] deals with Spodoptera littoralis. Put plainly: Activity against Spodoptera littoralis (Egyptian cotton leaf worm), cotton leaf discs. To be noted: foliar, 72 h, application rate 200 ppm, L1 larvae, 3 days after infestation, read-out: control (mortality, anti-feeding effect or growth inhibition). How it is done: Example B1: Activity Against Spodoptera littoralis (Egyptian Cotton Leaf Worm)
Cotton leaf discs were placed onto agar in 24-well microtiter plates and sprayed with aqueous test solutions prepared from 10′000 ppm DMSO stock solutions. After drying the leaf discs were infested with five L1 larvae. The samples were assessed for mortality, anti-feeding effect, and growth inhibition in comparison to untreated samples 3 days after infestation. Control of Spodoptera littoralis by a test sample is given when at least one of the categories mortality, anti-feedant effect, and growth inhibition is higher than the untreated sample.

In series [8] the test system is Plutella xylostella. The experiment in a line: Activity against Plutella xylostella (diamond back moth), artificial diet, eggs. To be noted: 192 h, application rate 200 ppm, 8 days after infestation, read-out: effect in at least one of the two categories (mortality or growth inhibition). The procedure:
Example B9: Activity Against Plutella xylostella (Diamond Back Moth)
24-well microtiter plates with artificial diet were treated with aqueous test solutions prepared from 10′000 ppm DMSO stock solutions by pipetting. After drying, Plutella eggs were pipetted through a plastic stencil onto a gel blotting paper and the plate was closed with it. The samples were assessed for mortality and growth inhibition in comparison to untreated samples 8 days after infestation.

Where [9] appears, read: 144 h, test rate 24 ppm, systemic, 6 days after placing seedlings in test solutions.
The mark [10] stands for this setting: Myzus persicae (systemic), concentration 24 ppm.

As to `CCS(=N)(=O)c1cc(C2(C#N)CC2)cnc1-c1nc2cc(C(F)(F)F)nnc2n1C` (racemic) [Compound P2, 1-[5-(ethylsulfonimidoyl)-6-[7-methyl-3-(trifluoromethyl)imidazo[4,5-c]pyridazin-6-yl]-3-pyridyl]cyclopropanecarbonitrile], the mortality at 200 ppm in series [1] and in series [4] was at least 80% throughout. Further, the percent effect (mortality or growth inhibition) at 200 ppm in series [2] and in series [5] was at least 80% each time. The compound also came in with a mortality at 24 ppm in series [3] (setting [9]) of at least 80%.

On to `CCS(=N)(=O)c1cc(C2(C#N)CC2)cnc1-c1nc2cc(C(F)(F)F)cnc2n1C` (racemic) [Compound P16, 1-[5-(ethylsulfonimidoyl)-6-[3-methyl-6-(trifluoromethyl)imidazo[4,5-b]pyridin-2-yl]-3-pyridyl]cyclopropanecarbonitrile], for which the mortality at 200 ppm in series [1] and in series [4] was at least 80% each time. Further, the mortality at 24 ppm in series [3] (setting [9]) is at least 80%. Besides, the percent effect (mortality or growth inhibition) at 200 ppm in series [6] is at least 80%.

Regarding `CCS(=N)(=O)c1cc(C2(C#N)CC2)ccc1-c1nc2cc(C(F)(F)F)ncc2n1C` (racemic) [Compound P18, 1-[3-(ethylsulfonimidoyl)-4-[3-methyl-6-(trifluoromethyl)imidazo[4,5-c]pyridin-2-yl]phenyl]cyclopropanecarbonitrile], the mortality at 200 ppm in series [1] and in series [4] was at least 80% each time. Besides, the percent effect (mortality or growth inhibition) at 200 ppm in series [2] and in series [5] was at least 80% in each case. In series [3] (setting [9]), the mortality at 24 ppm is at least 80%.

`CCS(=N)(=O)c1cc(OC(C)(C)C#N)cnc1-c1nc2cc(C(F)(F)F)n(C3CC3)c(=O)c2n1C` (single isomer, unassigned) [Compound P1-A, 2-[[6-[5-cyclopropyl-3-methyl-4-oxo-6-(trifluoromethyl)imidazo[4,5-c]pyridin-2-yl]-5-(ethylsulfonimidoyl)-3-pyridyl]oxy]-2-methyl-propanenitrile]: the mortality at 200 ppm in series [1] and in series [4] was at least 80% throughout. This compound also returned a mortality at 50 ppm in series [1] (Myzus persicae (contact), concentration 50 ppm) of 100%. Besides, the percent control (mortality, anti-feedant effect or growth inhibition) at 200 ppm in series [7] is at least 80%. Also, the percent effect (mortality or growth inhibition) at 200 ppm in series [2] and in series [5] was at least 80% in each case. Besides, the mortality at 24 ppm in series [3] (setting [9]) was at least 80%.

As to `CCS(=N)(=O)c1cc(OC(C)(C)C#N)c(C)nc1-c1nc2cc(C(F)(F)F)cnc2n1C` (single isomer, unassigned) [Compound P5-B, 2-[[5-(ethylsulfonimidoyl)-2-methyl-6-[3-methyl-6-(trifluoromethyl)imidazo[4,5-b]pyridin-2-yl]-3-pyridyl]oxy]-2-methyl-propanenitrile], the percent effect (mortality or growth inhibition) at 200 ppm in series [2] and in series [8] was at least 80% in each case. For the same compound, the “Mortality (%)” value in series [3] (setting [10]) and in series [5] (concentration 3.125 ppm) was 100% each time.

Regarding `CCS(=N)(=O)c1cc(OC(C)(C)C#N)cnc1-c1cn2cnc(SC(F)(F)F)cc2n1` (single isomer, unassigned) [Compound P7-A, 2-[[5-(ethylsulfonimidoyl)-6-[7-(trifluoromethylsulfanyl)imidazo[1,2-c]pyrimidin-2-yl]-3-pyridyl]oxy]-2-methyl-propanenitrile], the mortality at 200 ppm in series [1] and in series [4] was at least 80% throughout. The percent control (mortality, anti-feedant effect or growth inhibition) at 200 ppm in series [7] is at least 80%. For the same compound, the percent effect (mortality or growth inhibition) at 200 ppm in series [2] and in series [5] was at least 80% each time. This compound registered a mortality at 24 ppm in series [3] (setting [9]) of at least 80%. In series [4] (concentration 50 ppm), the mortality at 50 ppm turned out to be 80%.

In the case of `CCS(=N)(=O)c1cc(C2(C#N)CC2)cnc1-c1nc2cc(C(F)(F)F)n(OC)c(=O)c2n1C` (single isomer, unassigned) [Compound P8-A, 1-[5-(ethylsulfonimidoyl)-6-[5-methoxy-3-methyl-4-oxo-6-(trifluoromethyl)imidazo[4,5-c]pyridin-2-yl]-3-pyridyl]cyclopropanecarbonitrile], the mortality at 200 ppm in series [1] and in series [4] was at least 80% in each case. Further, the percent control (mortality, anti-feedant effect or growth inhibition) at 200 ppm in series [7] is at least 80%. The percent effect (mortality or growth inhibition) at 200 ppm in series [2] and in series [5] was at least 80% throughout. In series [3] (setting [9]), the mortality at 24 ppm was at least 80%.

With `CCn1c(C(F)(F)F)cc2nc(-c3ncc(C4(C#N)CC4)cc3S(=N)(=O)CC)n(C)c2c1=O` (single isomer, unassigned) [Compound P14-A, 1-[6-[5-ethyl-3-methyl-4-oxo-6-(trifluoromethyl)imidazo[4,5-c]pyridin-2-yl]-5-(ethylsulfonimidoyl)-3-pyridyl]cyclopropanecarbonitrile], the mortality at 200 ppm in series [1] and in series [4] was at least 80% in each case. Also, the percent control (mortality, anti-feedant effect or growth inhibition) at 200 ppm in series [7] is at least 80%. In addition, the percent effect (mortality or growth inhibition) at 200 ppm in series [2], in series [5] and in series [8] was at least 80% in each case. The compound further registered a mortality at 24 ppm in series [3] (setting [9]) of at least 80%. Further, in series [5] (concentration 50 ppm), the “Mortality (%)” value was found to be 80%.

As for `CCS(=N)(=O)c1cc(OC(C)(C)C#N)c(C)nc1-c1nc2cc(C(F)(F)F)ncc2n1C` (single isomer, unassigned) [Compound P17-B, 2-[[5-(ethylsulfonimidoyl)-2-methyl-6-[3-methyl-6-(trifluoromethyl)imidazo[4,5-c]pyridin-2-yl]-3-pyridyl]oxy]-2-methyl-propanenitrile], the percent control (mortality, anti-feedant effect or growth inhibition) at 200 ppm in series [7] was at least 80%. In addition, the percent effect (mortality or growth inhibition) at 200 ppm in series [2] was at least 80%.

On to `CCS(=N)(=O)c1cc(C2(C#N)CC2)ccc1-c1nc2cc(C(F)(F)F)ncc2n1C` (single isomer, unassigned) [Compound P18-B, 1-[3-(ethylsulfonimidoyl)-4-[3-methyl-6-(trifluoromethyl)imidazo[4,5-c]pyridin-2-yl]phenyl]cyclopropanecarbonitrile], for which, in series [2], the percent effect (mortality or growth inhibition) at 200 ppm was at least 80%. Also, the mortality at 12.5 ppm in series [4] (concentration 12.5 ppm) is 80%. In series [5] (concentration 50 ppm), this compound displayed a mortality at 50 ppm of 100%.

Turning to `CC[S@](=N)(=O)c1cc(OC(C)(C)C#N)cnc1-c1nc2cc(C(F)(F)F)cnc2n1C` [Compound P9-B, (S)-2-[[5-(ethylsulfonimidoyl)-6-[3-methyl-6-(trifluoromethyl)imidazo[4,5-b]pyridin-2-yl]-3-pyridyl]oxy]-2-methyl-propanenitrile], the mortality at 200 ppm in series [1] and in series [4] was at least 80% in each case. For the same compound, the percent control (mortality, anti-feedant effect or growth inhibition) at 200 ppm in series [7] was at least 80%. Also, the values for the mortality at 24 ppm in series [3] (setting [9]) and in series [3] (setting [10]) were at least 80% and 100%, respectively. Besides, the percent effect (mortality or growth inhibition) at 200 ppm in series [5] and in series [8] was at least 80% throughout. The compound also came in with a mortality at 50 ppm in series [5] (concentration 50 ppm) of 100%.
